The results in this text go back to ChEMBL document CHEMBL4811298, “Discovery of novel class of histone deacetylase inhibitors as potential anticancer agents” (Bioorg Med Chem, 2021).

Data set [1] can be described thus: Downregulation of HDAC3 gene expression in human MCF7 cells at 3 uM incubated for 24 hrs by whole transcriptome analysis relative to control. Format: functional.
The target in a further data set is Histone deacetylase 5 (Homo sapiens, UniProt Q9UQL6). Kind of data set: Inhibition of N-terminal GST-tagged human recombinant full length HDAC5 expressed in baculovirus-infected Sf9 cells assessed as reduction in 7-amino-4-methylcoumarin release measured every 5 mins by fluorescence based analysis.
Sequence of Histone deacetylase 5 (Q9UQL6 whole entry): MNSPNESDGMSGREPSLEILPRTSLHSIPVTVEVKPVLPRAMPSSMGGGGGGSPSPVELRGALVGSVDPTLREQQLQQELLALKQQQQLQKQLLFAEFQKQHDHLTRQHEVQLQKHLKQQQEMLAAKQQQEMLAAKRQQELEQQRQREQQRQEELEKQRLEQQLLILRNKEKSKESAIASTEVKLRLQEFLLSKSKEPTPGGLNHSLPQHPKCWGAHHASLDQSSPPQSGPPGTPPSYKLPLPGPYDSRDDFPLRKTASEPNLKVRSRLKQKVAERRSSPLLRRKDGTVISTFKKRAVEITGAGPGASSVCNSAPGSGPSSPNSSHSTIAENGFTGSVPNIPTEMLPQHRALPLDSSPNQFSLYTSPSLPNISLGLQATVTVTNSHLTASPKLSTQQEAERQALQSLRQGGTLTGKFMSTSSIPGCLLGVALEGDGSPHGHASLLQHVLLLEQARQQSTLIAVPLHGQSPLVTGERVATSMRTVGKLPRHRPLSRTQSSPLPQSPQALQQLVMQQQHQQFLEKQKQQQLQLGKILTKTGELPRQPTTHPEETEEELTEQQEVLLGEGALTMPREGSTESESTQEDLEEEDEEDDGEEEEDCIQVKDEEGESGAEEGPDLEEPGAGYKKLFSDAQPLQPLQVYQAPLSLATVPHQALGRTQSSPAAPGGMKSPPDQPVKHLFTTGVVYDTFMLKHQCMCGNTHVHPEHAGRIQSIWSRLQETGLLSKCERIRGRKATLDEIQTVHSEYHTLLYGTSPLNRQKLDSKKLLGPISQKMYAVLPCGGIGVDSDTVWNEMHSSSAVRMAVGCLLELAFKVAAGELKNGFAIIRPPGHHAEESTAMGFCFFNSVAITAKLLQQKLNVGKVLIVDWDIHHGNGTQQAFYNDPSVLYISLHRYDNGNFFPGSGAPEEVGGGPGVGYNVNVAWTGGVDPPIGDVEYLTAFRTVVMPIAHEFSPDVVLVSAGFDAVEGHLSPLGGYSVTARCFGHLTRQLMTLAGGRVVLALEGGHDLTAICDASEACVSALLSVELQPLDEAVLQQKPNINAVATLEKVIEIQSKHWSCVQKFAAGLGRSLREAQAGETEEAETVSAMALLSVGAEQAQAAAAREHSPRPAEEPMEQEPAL
Data set [2] has as its system MCF7. Kind of data set: Induction of cell cycle arrest in human MCF7 cells assessed downregulation of CDK2 gene expression at 3 uM incubated for 24 hrs by whole transcriptome analysis. Format: functional, cell-based.
The subject of data set [3] is MCF7. Kind of data set: Induction of cell cycle arrest in human MCF7 cells assessed downregulation of CDK6 gene expression at 3 uM incubated for 24 hrs by whole transcriptome analysis. Type of data set: functional, cell-based.
The species entered for data set [4] is Homo sapiens. In words: Selectivity ratio of IC50 for inhibition of N-terminal GST-tagged human recombinant full length HDAC5 expressed in baculovirus-infected Sf9 cells to IC50 for inhibition of C-terminal FLAG/His-tagged human recombinant HDAC1 (1 to 482 residues) expressed in baculovirus-infected Sf9 cells.
The test system of data set [5] is MCF7. Kind of data set: Downregulation of SIRT2 gene expression in human MCF7 cells at 3 uM incubated for 24 hrs by whole transcriptome analysis. Format: functional, cell-based.
The species entered for data set [6] is Homo sapiens. Kind of data set: Selectivity ratio of IC50 for inhibition of C-terminal His-tagged human recombinant full length HDAC3 (1 to 428 residues)/N-terminal GST-tagged human recombinant NCOR2 (395 to 489 residues) expressed in baculovirus-infected Sf9 cells to IC50 for inhibition of C-terminal 6XHis-tagged human recombinant full length HDAC2 (1 to 488 residues) expressed in baculovirus-infected Sf9 cells.

Data set [7] concerns MCF7. In words: Induction of cell cycle arrest in human MCF7 cells assessed downregulation of CDK4 gene expression at 3 uM incubated for 24 hrs by whole transcriptome analysis. Format: functional, cell-based.
Data set [8] relates to MCF7. In words: Induction of cell cycle arrest in human MCF7 cells assessed as accumulation at subG1 phase at 1 uM incubated for 24 to 72 hrs by PI staining based flow cytometric analysis. Format: functional. The note with it: time 24-72 hrs. A general note: In flow cytometry, cells or beads pass a laser one at a time.
Data set [9] is filed under the species Homo sapiens. In words: Selectivity ratio of IC50 for inhibition of N-terminal GST-tagged/C-terminal His-tagged human recombinant HDAC4 (627 to 1084 residues) expressed in baculovirus-infected Sf9 cells to IC50 for inhibition of C-terminal FLAG/His-tagged human recombinant HDAC1 (1 to 482 residues) expressed in baculovirus-infected Sf9 cells.
A further data set deals with Cytochrome P450 2C9 (Homo sapiens, UniProt P11712). In words: Inhibition of human CYP2C9-1 expressed in insect supersomes assessed as reduction in HFC formation using MFC as substrate measured after 30 mins in presence of NADPH by fluorescence based analysis. Format: ADME.
Sequence of Cytochrome P450 2C9 (P11712 whole entry): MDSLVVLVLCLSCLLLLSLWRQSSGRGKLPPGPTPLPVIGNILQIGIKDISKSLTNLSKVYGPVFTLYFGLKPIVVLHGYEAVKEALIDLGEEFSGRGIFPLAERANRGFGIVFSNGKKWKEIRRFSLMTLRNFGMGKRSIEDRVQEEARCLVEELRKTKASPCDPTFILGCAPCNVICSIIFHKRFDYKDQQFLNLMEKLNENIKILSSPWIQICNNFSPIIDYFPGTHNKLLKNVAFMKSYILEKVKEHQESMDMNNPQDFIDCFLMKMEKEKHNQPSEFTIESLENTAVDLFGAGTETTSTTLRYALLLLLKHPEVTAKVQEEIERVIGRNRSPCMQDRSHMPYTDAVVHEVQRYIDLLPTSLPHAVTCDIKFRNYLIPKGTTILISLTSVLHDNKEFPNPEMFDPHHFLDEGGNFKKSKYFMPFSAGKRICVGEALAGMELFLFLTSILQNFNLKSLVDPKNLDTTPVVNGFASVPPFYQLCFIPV
A short description of data set [10]: Metabolic stability of the compound in human liver microsomes assessed as parent compound remaining at 1 uM measured after 60 mins in absence of NADPH by LC-MS/MS analysis. The note with it: read-out: Stabilty. Format: ADME, Microsome.
The nature of data set [11]: Downregulation of HDAC1 gene expression in human MCF7 cells at 3 uM incubated for 24 hrs by whole transcriptome analysis relative to control. Type of data set: functional.
For data set [12], the system named is MCF7. In words: Induction of apoptosis in human MCF7 cells assessed as downregulation of c-Myc protein expression at 1 to 3 uM measured after 48 hrs western blot analysis. Conditions: dose 1-3 µM. Format: functional, cell-based. (In general: In western blotting, separated proteins are transferred to a membrane and probed.)
A short description of data set [13]: Metabolic stability of the compound in CD-1 mouse liver microsomes assessed as parent compound remaining at 1 uM measured after 60 mins in absence of NADPH by LC-MS/MS analysis. Conditions: read-out: Stabilty. Type of data set: ADME, Microsome.
The test system of the next data set is A549. In words: Antiproliferative activity against human A549 cells assessed as reduction in cell viability incubated for 48 hrs by SRB assay. Type of data set: functional, cell-based. The note with it: A549, 48 h. Background: Sulforhodamine B stains cellular protein and so reports cell mass.
Data set [14] has as its system MCF7. In words: Induction of apoptosis in human MCF7 cells assessed as downregulation of c-Myc gene expression at 1 uM measured after 24 hrs whole transcriptome analysis. Format: functional, cell-based.
Data set [15] has as its system MCF7. In words: Induction of cell cycle arrest in human MCF7 cells assessed downregulation of E2F1 gene expression at 3 uM incubated for 24 hrs by whole transcriptome analysis. Type of data set: functional, cell-based.
For data set [16], the system named is MCF7. In words: Induction of apoptosis in human MCF7 cells assessed as reduction in Bcl2 gene expression at 3 uM incubated for 24 hrs by whole transcriptome analysis. Format: functional, cell-based.
The subject of data set [17] is MCF7. Kind of data set: Downregulation of NFkB2 gene expression in human MCF7 cells at 3 uM incubated for 24 hrs by whole transcriptome analysis. Type of data set: functional, cell-based.
The nature of data set [18]: Half life in CD-1 mouse liver microsomes at 1 uM measured after 60 mins in presence of NADPH by LC-MS/MS analysis. Type of data set: ADME, Microsome.
The next data set addresses T1, Histone deacetylase 7 (Homo sapiens, UniProt Q8WUI4).
T1 sequence (Q8WUI4 whole entry): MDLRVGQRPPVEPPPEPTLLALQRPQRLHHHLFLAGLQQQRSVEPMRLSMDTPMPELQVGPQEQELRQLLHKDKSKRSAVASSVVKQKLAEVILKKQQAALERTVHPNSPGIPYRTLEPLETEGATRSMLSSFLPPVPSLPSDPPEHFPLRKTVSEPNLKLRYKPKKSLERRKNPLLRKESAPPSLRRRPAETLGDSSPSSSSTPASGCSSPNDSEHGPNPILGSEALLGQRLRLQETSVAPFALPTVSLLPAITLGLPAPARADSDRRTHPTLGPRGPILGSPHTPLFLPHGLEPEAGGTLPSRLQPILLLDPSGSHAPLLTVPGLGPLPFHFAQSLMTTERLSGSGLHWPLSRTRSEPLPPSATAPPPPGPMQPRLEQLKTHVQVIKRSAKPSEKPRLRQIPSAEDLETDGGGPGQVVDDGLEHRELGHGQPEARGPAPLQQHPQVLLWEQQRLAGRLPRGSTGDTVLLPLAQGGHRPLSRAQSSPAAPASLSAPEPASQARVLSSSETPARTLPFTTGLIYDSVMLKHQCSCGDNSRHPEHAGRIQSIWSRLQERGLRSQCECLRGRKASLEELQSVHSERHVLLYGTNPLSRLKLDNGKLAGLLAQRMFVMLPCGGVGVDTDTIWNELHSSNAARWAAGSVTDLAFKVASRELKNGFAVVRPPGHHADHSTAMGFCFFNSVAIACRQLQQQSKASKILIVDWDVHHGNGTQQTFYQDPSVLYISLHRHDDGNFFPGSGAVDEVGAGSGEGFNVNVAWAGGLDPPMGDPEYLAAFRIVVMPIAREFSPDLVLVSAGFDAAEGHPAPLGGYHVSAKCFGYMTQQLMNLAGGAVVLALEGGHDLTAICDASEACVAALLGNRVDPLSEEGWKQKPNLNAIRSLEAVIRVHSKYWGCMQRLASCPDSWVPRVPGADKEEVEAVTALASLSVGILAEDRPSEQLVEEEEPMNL
Kind of data set: Inhibition of N-terminal GST-tagged human HDAC7 (518 to end residues) expressed in baculovirus-infected Sf9 cells assessed as reduction in 7-amino-4-methylcoumarin release measured every 5 mins by fluorescence based analysis.

The species named for data set [19] is Homo sapiens. Kind of data set: Selectivity ratio of IC50 for inhibition of N-terminal GST-tagged/C-terminal His-tagged human recombinant HDAC4 (627 to 1084 residues) expressed in baculovirus-infected Sf9 cells to IC50 for inhibition of C-terminal 6XHis-tagged human recombinant full length HDAC2 (1 to 488 residues) expressed in baculovirus-infected Sf9 cells.

Activity calls are given as the source filed them.

By IC50 is commonly meant the point on the concentration scale where inhibition reaches its midpoint. The half-life is the time needed for the level to fall by half in the phase considered. As for `N=C(NO)c1ccc2nc(-c3cccc(-c4cn5ccccc5n4)c3)[nH]c2c1`, the “fold change (FC)” value in data set [1] amounted to 2.2; in data set [11] it was 3.2. The IC50 at Histone deacetylase 5 was greater than 10 µM; on Cytochrome P450 2C9 it was greater than 10 µM; in the data set with A549, 0.2 µM; on Histone deacetylase 7 it was greater than 10 µM. For the same compound, the outcome with MCF7 [2], in the data set with MCF7 [3], with MCF7 [7], in the data set on MCF7 [8], with MCF7 [12] and in the data set with MCF7 [14] was Active. Moreover, the result in the data set on MCF7 [15] and in the data set on MCF7 [16] was Active. In addition, the Ratio IC50 in the data set filed under Homo sapiens [4], in the data set filed under Homo sapiens [6], in the data set filed under Homo sapiens [9] and in the data set filed under Homo sapiens [19] was greater than 44 each time. The inhibition result in the data set with MCF7 [5] and in the data set on MCF7 [17] was “Active” throughout. Besides, the remaining at 1 h, 1 µM in [10] came out at 99%; in data set [13] it was 94%. Further, in data set [18], the half-life at 1 µM was 17.6 min.
